# Patent publication US20150141439A1, “PHARMACEUTICAL COMPOSITION FOR THE PREVENTION OR TREATMENT OF BRAIN TUMOR OR TEMODAL RESISTANT GLIOBLASTOMA MULTIFORM COMPRISING AZATHIOPRINE AS AN ACTIVE INGREDIENT” (KOREA RESEARCH INSTITUTE OF CHEMICAL TECHNOLOGY, priority 2012, published 2015)
# How the values were obtained:
# [1] = tested on: U2932 Human DLBCL (Diffuse large B-cell lymphoma); assay: Secondary cytotoxicity test, U2932; format: cell-based
# Method: (§1) Particularly, the cell growth inhibition effect was measured by WST-1 cell proliferation assay [http://www.roche-applied-science.com/PROD_INF/MANUALS/CELL_MAN/apoptosis—087—088.pdf]. The compound of formula 1 was loaded in a 384-well cell culture plate. Three types of glioblastoma multiform cell lines [proneural subtype (559T), mesenchymal subtype (592T), and classical subtype (626T)], normal human astrocytes (NHA), a lung cancer cell line (A549), and a glioblastoma multiform cell line (U87MG) were distributed in the plate at the density of 4.5×10^3 cells/well, and the medium was filled up to make 50 μl per well. At this time, the concentration of the solvent DMSO for the compound of formula 1 was no more than 0.2%. After culturing the cells for 72 hours, 5 mg/ml of WST-1 reagent was added by 5 μl per well, followed by reaction for 3˜4 hours. Then OD450 was measured to investigate the effect of the compound of formula 1 on cell proliferation.
# (§2) To investigate the cell growth inhibition effect of the compound of formula 1 of the present invention (azathioprine) in many different cell lines, secondary cytotoxicity test was performed with the cell lines listed in Table 5 by the same manner as described in Example 1.
# [2] = tested on: Hela Human adenocarcinoma; assay: Secondary cytotoxicity test, Hela; format: cell-based
# Method: as §1, §2
# [3] = tested on: HCT-116 Human colorectal carcinoma; assay: Secondary cytotoxicity test, HCT-116; format: cell-based
# Method: as §1, §2
# [4] = tested on: NCI-H23 Human lung adenocarcinoma; assay: Secondary cytotoxicity test, NCI-H23; format: cell-based
# Method: as §1, §2
# [5] = tested on: HepG2 Human hepatocarcinoma; assay: Secondary cytotoxicity test, HepG2; format: cell-based
# Method: as §1, §2
# [6] = tested on: MCF-7 Human breast adenocarcinoma; assay: Secondary cytotoxicity test, MCF-7; format: cell-based; settings: MCF7
# Method: as §1, §2
# [7] = tested on: PC3 Human prostate adenocarcinoma; assay: Secondary cytotoxicity test, PC3; format: cell-based; settings: PC-3
# Method: as §1, §2
# [8] = tested on: MKN45 Human stomach adenocarcinoma; assay: Secondary cytotoxicity test, MKN45; format: cell-based; settings: MKN-45
# Method: as §1, §2
# HaCat Human keratinocyte = assay: Secondary cytotoxicity test, HaCat; format: cell-based
# Method: as §1, §2
# [9] = tested on: CCD986SK Human fibroblast; assay: Secondary cytotoxicity test, CCD986SK; format: cell-based; settings: CCD-986Sk
# Method: as §1, §2
# [10] = tested on: GBM #1 glioblastoma multiform patient originated cells; assay: Neurosphere formation inhibition, GBM #1; format: cell-based, human; parameters: key to inhibition of neurosphere formation: S: strong effect; I: intermediate effect; R: rare effect; settings: GBM #1, type A (proneural), Temodal 20 μM, duration 7 day
# Method: (§3) Particularly, to investigate neurosphere formation, glioblastoma multiform cells were cultured for a certain time and the cells were distributed again in culture vessels, followed by additional culture. Then, the number of newly generated neurospheres was measured. First, the glioblastoma multiform patient originated cells were sub-cultured, which were distributed in a 96-well plate (20, 50, and 200 cells in 50 μl of culture medium/well). 2, 6, and 20 μM of the compound of formula 1 (azathioprine) and the compound of Comparative Example 1 (Temodal) were treated thereto by 50 μl per well to make the final concentrations of 1, 3, and 10 μM. Then, the compound of formula 1 (azathioprine) and the compound of Comparative Example 1 (Temodal) were added to 50 μl of cell culture medium with the same concentrations as the above once a week, which were then cultured for 7˜23 days. When neurosphere was formed at least 50 μm in the control group not treated with the compound, the number of neurospheres in each well was counted to compare the neurosphere formation before and after the treatment of the compound of formula 1 (azathioprine) and the compound of Comparative Example 1 (Temodal).
# The glioblastoma multiform cells used in this experiment were classified into 4 types, which are type A, type B, type C, and type D, according to the gene expression pattern. Methylation of MGMT (O6-me-G methyltransferase), the DNA repair protein, was confirmed in each cell line. At that time, type A [GBM #1, #2, #3] was proneural subtype, type B [GBM #4, #5, #6, #7] was classical subtype, type C [GBM #8] was mesenchymal subtype, and type D [GBM #9, #10] was non-classified glioblastoma multiform.
# [11] = tested on: GBM #2 glioblastoma multiform patient originated cells; assay: Neurosphere formation inhibition, GBM #2; format: cell-based, human; parameters: key: S: strong effect; I: intermediate effect; R: rare effect; settings: GBM #2, type A (proneural), Temodal 20 μM, duration 15 day
# Method: as §3, with “2, 6, and 20 μM of the compound of formula 1 (azathioprine) and the compound of Comparative Example 1 (Temodal) were treated thereto by 50 μl per well to make the final concentrations of 1, 3, and 10 μM.” left out
# (§4) The glioblastoma multiform cells used in this experiment were classified into 4 types, which are type A, type B, type C, and type D, according to the gene expression pattern. Methylation of MGMT (O6-me-G methyltransferase), the DNA repair protein, was confirmed in each cell line. […]
# [12] = tested on: GBM #3 glioblastoma multiform patient originated cells; assay: Neurosphere formation inhibition, GBM #3; format: cell-based, human; parameters: key: S: strong effect; I: intermediate effect; R: rare effect; settings: GBM #3, type A (proneural), Temodal 20 μM, duration 21 day
# Method: as §3, with “2, 6, and 20 μM of the compound of formula 1 (azathioprine) and the compound of Comparative Example 1 (Temodal) were treated thereto by 50 μl per well to make the final concentrations of 1, 3, and 10 μM.” left out
# as §4
# [13] = tested on: GBM #4 glioblastoma multiform patient originated cells; assay: Neurosphere formation inhibition, GBM #4; format: cell-based, human; parameters: key: S: strong effect; I: intermediate effect; R: rare effect; settings: GBM #4, type B (classical), Temodal 20 μM, duration 9 day
# Method: as §3, with “2, 6, and 20 μM of the compound of formula 1 (azathioprine) and the compound of Comparative Example 1 (Temodal) were treated thereto by 50 μl per well to make the final concentrations of 1, 3, and 10 μM.” left out
# as §4
# [14] = tested on: GBM #5 glioblastoma multiform patient originated cells; assay: Neurosphere formation inhibition, GBM #5; format: cell-based, human; parameters: key: S: strong effect; I: intermediate effect; R: rare effect; settings: GBM #5, type B (classical), Temodal 20 μM, duration 21 day
# Method: as §3, with “2, 6, and 20 μM of the compound of formula 1 (azathioprine) and the compound of Comparative Example 1 (Temodal) were treated thereto by 50 μl per well to make the final concentrations of 1, 3, and 10 μM.” left out
# as §4
# [15] = tested on: GBM #6 glioblastoma multiform patient originated cells; assay: Neurosphere formation inhibition, GBM #6; format: cell-based, human; parameters: key: S: strong effect; I: intermediate effect; R: rare effect; settings: GBM #6, type B (classical), Temodal 20 μM, duration 23 day
# Method: as §3
# (§5) The glioblastoma multiform cells used in this experiment were classified into 4 types, which are type A, type B, type C, and type D, according to the gene expression pattern. […]
# [16] = tested on: GBM #7 glioblastoma multiform patient originated cells; assay: Neurosphere formation inhibition, GBM #7; format: cell-based, human; parameters: key: S: strong effect; I: intermediate effect; R: rare effect; settings: GBM #7, type B (classical), Temodal 20 μM, duration 23 day
# Method: as §3, §5
# [17] = tested on: GBM #8 glioblastoma multiform patient originated cells; assay: Neurosphere formation inhibition, GBM #8; format: cell-based, human; parameters: key: S: strong effect; I: intermediate effect; R: rare effect; settings: GBM #8, type C (mesenchymal), Temodal 20 μM, duration 15 day
# Method: as §3, §5
# [18] = tested on: GBM #9 glioblastoma multiform patient originated cells; assay: Neurosphere formation inhibition, GBM #9; format: cell-based, human; parameters: key: S: strong effect; I: intermediate effect; R: rare effect; settings: GBM #9, type D (non-classified), Temodal 20 μM, duration 21 day
# Method: as §3, with “2, 6, and 20 μM of the compound of formula 1 (azathioprine) and the compound of Comparative Example 1 (Temodal) were treated thereto by 50 μl per well to make the final concentrations of 1, 3, and 10 μM.” left out
# as §4
# [19] = tested on: GBM #10 glioblastoma multiform patient originated cells; assay: Neurosphere formation inhibition, GBM #10; format: cell-based, human; parameters: key: S: strong effect; I: intermediate effect; R: rare effect; settings: GBM #10, type D (non-classified), Temodal 20 μM, duration 10 day
# Method: as §3, with “2, 6, and 20 μM of the compound of formula 1 (azathioprine) and the compound of Comparative Example 1 (Temodal) were treated thereto by 50 μl per well to make the final concentrations of 1, 3, and 10 μM.” left out
# as §4
# [20] = tested on: glioblastoma multiform cells transplanted in the brain of a mouse; assay: Glioblastoma multiform orthotopic animal model, survival; format: in vivo; settings: single treatment; for Average Survival Period: Temodal 65 mg/kg oral for 5 days from day 17 after transplantation, control 27 days; for Survival Period Extension Rate (%): vs. untreated control, Temodal 65 mg/kg oral for 5 days from day 17
# Method: Following experiment was performed to investigate the radiosensitizing effect and chemosensitizing effect of the compound of formula 1 (azathioprine) in the glioblastoma multiform orthotopic animal model.
# Particularly, to investigate the resistance against Temodal or radiotherapy in glioblastoma multiform, glioblastoma multiform cells were cultured. The cultured cells (2×10^5/5 μl) were transplanted in the brain of a mouse. 17 days later, the administration of Temodal (65 mg/kg, oral-administration) or radiotherapy (2 Gy) began, which continued for 5 days. The average survival period was investigated. […] For the comparison, the survival period of the group treated with “Avastin”, the well-known anticancer agent, is also presented.
# Glioblastoma multiform, glioblastoma multiform cells were cultured. The cultured cells (2×10^5/5 μl) were transplanted in the brain of a mouse. 17 days later, the administration of Temodal (65 mg/kg, oral-administration) or radiotherapy (2 Gy) began, which continued for 5 days. Unlike the above experiment, the compound of formula 1 of the present invention (azathioprine) was co-treated to the mouse by oral-administration at the dose of 20 mg/kg every day after 11 days from the glioblastoma multiform transplantation in the mouse brain. Then, the average survival period was investigated.
# [21] = tested on: cells of lung cancer with brain metastasis transplanted in the mouse brain; assay: Animal test with cells of lung cancer with brain metastasis, survival; format: in vivo; settings: azathioprine 2 mg/kg oral every day after day 11, Temodal (TMZ) 65 mg/kg oral 5 days from day 17
# Method: The cells of lung cancer with brain metastasis were obtained from Samsung Hospital (Seoul) and cultured. The cultured cells (2×10^5/5 μl) were transplanted in the mouse brain. 17 days later, Temodal administration (65 mg/kg, oral administration) began, which continued for 5 days. The compound of formula 1 of the present invention (azathioprine) was co-treated to the mouse by oral-administration at the dose of 2 mg/kg every day after 11 days from the transplantation of the cells of lung cancer with brain metastasis in the mouse brain. Then, the average survival period was investigated.
compound,measurement,setting,value
"COc1cccc2c1C(=O)c1c(O)c3c(c(O)c1C2=O)C[C@@](O)(C(=O)CO)C[C@@H]3O[C@H]1C[C@H](N)[C@H](O)[C@H](C)O1 [Doxorubicin, reference compound]",IC50,[1],440 nM
same,IC50,[2],370 nM
same,IC50,[3],390 nM
same,IC50,[4],190 nM
same,IC50,[5],700 nM
same,IC50,[6],550 nM
same,IC50,[7],350 nM
same,IC50,[8],280 nM
same,IC50,HaCat Human keratinocyte,230 nM
same,IC50,[9],960 nM
"Cn1nnc2c(C(N)=O)ncn2c1=O [Temodal, temozolomide]",inhibition of neurosphere formation,[10],S
same,inhibition of neurosphere formation,[11],R
same,inhibition of neurosphere formation,[12],R
same,inhibition of neurosphere formation,[13],S
same,inhibition of neurosphere formation,[14],S
same,inhibition of neurosphere formation,[15],S
same,inhibition of neurosphere formation,[16],S
same,inhibition of neurosphere formation,[17],R
same,inhibition of neurosphere formation,[18],S
same,inhibition of neurosphere formation,[19],R
same,Average Survival Period,[20],31 days
same,Survival Period Extension Rate (%),[20],19%
same,Average Survival Period,[21],63 days
same,Survival Period Extension Rate (%),[21],100-129%
Avastin: the well-known anticancer agent,Average Survival Period,[20],28 days
same,Survival Period Extension Rate (%),[20],8%
